Measured values reported in publication PMC4738305, “Metabolism and Disposition of Aditoprim in Swine, Broilers, Carp and Rats” (Scientific Reports, 2016).
Where two headings read alike, the source gives them in different places.

Columns and labels:
[1] = Concentration and elimination of ADP and its metabolites in liver, kidney, muscle, fat/skin after oral ^3H-ADP for 7 d; type: in vivo, broilers; conditions: for concentration at 0.25 d / concentration at 1 d / concentration at 3 d / concentration at 7 d / concentration at 14 d: oral; for half-life: po
Experimental: (§1) A total of 36 animals from each species (swine n = 24) were randomly assigned to six equal treatment groups and administered a single daily dose of ^3 H-ADP at 5 mg/kg b. w. (0.1 Ci/g) through oral gavage for 7 consecutive days. All the animals were housed on the basis of their group in the cages or aquaria throughout the whole study period. A group of animals was slaughtered through exsanguination under diethyl ether inhalation of anesthesia in the period of 6 h, 1, 3, 7, 14, and 21 d after the administration. The blood samples were immediately collected into the heparinized tubes and was centrifuged at 1920 × g at 4 °C for 10 min to obtain the plasma. The tissues from the heart, liver, spleen, lung, kidney, craw (broilers), stomach, intestine, fat, skin, muscle, thymus, pancreas, bile, bladder, hair (scale for carp), genital gland, adrenal glands, swim bladder (carp), brain, lymph, and bursa (broilers) were carefully excised and collected. The tissues were thoroughly rinsed with the deionized water to remove the residuary blood, blotted to dryness, and finally to perform the homogenization. In order to avoid cross-contamination the dissecting instruments were washed during the tissue procurements. The blank tissues were collected in order to provide control matrices. The total radioactivity levels in each sample were determined through LSC. The samples extracted from the plasma, bile, and tissues of the liver, kidney, muscle, and fat/skin were analyzed through LC/MS-IT-TOF and v. ARC radiometric detection for metabolite profiling. The blank samples were used as control to determine the background radioactivity or the endogenous nondrug-related ions observed within respective matrices or their extracts.
The feces and tissues (2 g) were diluted with a mixture of methanol and chloroform (1:3, v:v; 2 mL/g homogenate). This procedure was carried out in a fume hood for the safety aspects. The pH value was adjusted to 9.0 with NH4OH. The mixture was vortexed and sonicated for 5 min and 10 min, respectively, and finally the samples were centrifuged at 7690 × g for 10 min. The supernatant was aspirated and then transferred into a new centrifuge tube. The obtained pellet was again subjected to the same process of vortex, ultrasonication, extraction, and centrifugation. The combined supernatant was concentrated under a stream of nitrogen in a water bath at 40 °C. The residue was reconstituted with 0.3 mL of methanol–water (1:9, v:v) before the injection into the LC-v. ARC/MS-IT-TOF system for analysis.
ADP and its metabolites in the prepared samples were determined with a v. ARC radiometric detector and a hybrid IT/TOF mass spectrometer connected to the HPLC system (Shimadzu Corp., Kyoto, Japan). The LC system was equipped with a solvent delivery pump (LC-20AD), an auto-sampler (SIL-20AC), a degasser (DGU-20 A 3), a photodiode array detector (SPD-M20A), a communication base module (CBM-20 A), and a column oven (CTO-20AC). The chromatographic separation was achieved by using an Agilent extend-C18 column (2.1 mm × 150 mm, 5 μm) with a gradient mobile phase of A (0.01% ammonia and 5 mM ammonium acetate in water) and B (methanol) at a flow rate of 0.2 mL/min. The column temperature was maintained at 35 °C. Various HPLC methods were performed because of the large number of different metabolites to be analyzed. For the porcine sample, method 1 started at 5% B and increased to 20% B over 35 min, then to 55% B by 60 min, followed by re-equilibration for another 10 min. For the remaining samples, method 2 started at 10% B and increased to 60% B over 30 min, subsequently was maintained at 60% B for an additional 10 min, and then changed to 90% B over 2 min and maintained for 2 min. Afterwards, a re-equilibration step (decreased to 10% B over 1 min and maintained at 10% B for additional 9 min) was followed. For each matrix, more than 98% of the radioactivity injected into the column was eluted during the running time of the gradient program. […]

[2] = Metabolite profiling of ADP in excreta, plasma and bile (LC-v.ARC/MS-IT-TOF); type: in vivo, rats; conditions: for Average percentage of ADP and its metabolites in total dose: Rat, single oral 5 mg/kg b.w. ^3H-ADP; for percentage of the individual metabolite compared with the total concentration of ADP-related: within 6 h after dosing
Experimental: Animals (4 swine, 6 broilers, 6 carp, and 3 male and 3 female rats) were housed individually in clean, suspended wire-mesh metabolism cages, designed to separate the urine from the feces (carp were raised in individual aquaria). Each animal was weighed and assigned with a permanent identification number. A single dose of ^3 H-ADP (5 mg/kg b. w., 0.1 Ci/g) was administered via the oral gavage. Excreta were collected on ice at the pre-administration, in the period of 6, 12, and 24 h on day 1 d, and afterwards, intermittently in the period of 24 h up to 14 d. The piscine excreta were collected by changing and collecting raised water. The total volume or weight of each sample was measured and homogenized. The total radioactivity levels were determined through LSC for the recovery calculations. After the preparation, the samples were analyzed through LC/MS-IT-TOF with v. ARC radiometric detection (XenoBioticLaboratories, Inc.) for metabolite profiling. The pretreatment samples were used as controls to determine the background radioactivity or the endogenous nondrug-related ions observed within respective matrices or their extracts.
as §1
For metabolite profiling, the urine and feces samples from each animals were pooled proportionally to the excreted amount in each sampling period from 0 to 6 h, 6 h to 1 d, 1 to 3 d, 3 to 7 d, and 7 to 14 d post-dose, respectively. All samples were fully homogenized before the process. The pre-dose and blank samples served as the controls for determining the background radioactivity or the endogenous, nondrug-related ions observed within respective matrices or their extracts.
The urine samples (plasma, bile and raised water for carp) was subjected to solid-phase extraction with an Oasis MCX cartridge (3 mL, […]; Waters, Milford, MA, USA) for metabolite purification and enrichment. The pH value was adjusted to 2.8–3.2 by adding 1 M hydrochloric acid (HCl), and 2 mL of the sample was transferred into MCX cartridge, which was preconditioned with 3 mL of methanol and 3 mL of 0.1 mol/L HCl solution. The cartridge was washed with 3 mL of 0.1 mol/L HCl solution and was eluted with 5 mL of NH4OH/methanol (4:96, v:v). The effluent was concentrated to dryness under a stream of nitrogen at 40 °C. […]

[3] = broiler chicken, kidney, 5 mg/kg b.w.
[4] = broiler chicken, muscle, 5 mg/kg b.w.
[5] = broilers, muscle, 5 mg/kg b. w.
[6] = broiler kidney, after 5 mg/kg b. w. for 7 days, read-out: t1/2 of the individual compound (converted)
[7] = broiler liver, after 5 mg/kg b. w. for 7 days, read-out: t1/2 of the individual compound (converted)
[8] = tissues (liver, kidney, muscle, fat/skin), 5 mg/kg, broilers tissues, read-out: t1/2 of the individual compound, range over tissues

concentration at 0.25 d [1, 3]	concentration at 1 d [1, 3]	concentration at 3 d [1, 3]	concentration at 0.25 d [1, 4]	concentration at 0.25 d ([1]; broilers, fat, 5 mg/kg b. w.)	concentration at 1 d ([1]; broilers, fat, 5 mg/kg b. w.)	concentration at 0.25 d ([1]; broilers, liver, 5 mg/kg b. w.)	concentration at 1 d ([1]; broilers, liver, 5 mg/kg b. w.)	concentration at 3 d ([1]; broilers, liver, 5 mg/kg b. w.)	concentration at 1 d [1, 5]	half-life [1, 6]	half-life [1, 7]	half-life [1, 8]	Average percentage of ADP and its metabolites in total dose ([2]; Feces)	Average percentage of ADP and its metabolites in total dose ([2]; Urine)	percentage of the individual metabolite compared with the total concentration of ADP-related ([2]; Rats Feces)	percentage of the individual metabolite compared with the total concentration of ADP-related ([2]; Rats Plasma)	percentage of the individual metabolite compared with the total concentration of ADP-related ([2]; Rats Urine)	other results	SMILES
6060 ± 970 ng/g	2920 ± 530 ng/g	370 ± 100 ng/g	200 ± 80 ng/g	300 ± 100 ng/g	60 ± 20 ng/g	3090 ± 680 ng/g	740 ± 120 ng/g	370 ± 100 ng/g	90 ± 20 ng/g	16.3 h	25.2 h	16.3 to 25.2 h	2.7%	13.8%	20.4%	19.0%	14.7%		CNc1c(OC)cc(Cc2cnc(N)nc2N)cc1OC [A1, N-monodesmethyl-ADP]
1200 ± 80 ng/g	550 ± 140 ng/g		60 ± 20 ng/g	30 ± 10 ng/g		380 ± 50 ng/g	190 ± 50 ng/g		10 ng/g				0.7%	1.1%	0.3%	6.0%	2.6%		COc1cc(Cc2cnc(N)nc2N)cc(OC)c1N [A2, N-didesmethyl-ADP]
15400 ± 2120 ng/g	7240 ± 1020 ng/g	1150 ± 440 ng/g	530 ± 220 ng/g	780 ± 240 ng/g	180 ± 60 ng/g	8040 ± 1400 ng/g	1860 ± 580 ng/g	1150 ± 440 ng/g	330 ± 100 ng/g	55.4 h	81.6 h	40.1 to 81.6 h	14.0%	61.3%	79.4%	75.0%	71.2%	concentration at 7 d [1, 3]: 170 ± 20 ng/g; concentration at 14 d [1, 3]: 40 ± 10 ng/g; share of the sample radioactivity in the detected tissues ([1]; broilers liver, kidney, muscle, fat, over the sampling times): more than 42%; concentration at 3 d ([1]; broilers, fat, 5 mg/kg b. w.): 140 ± 20 ng/g; concentration at 7 d ([1]; broilers, fat, 5 mg/kg b. w.): 60 ± 10 ng/g; concentration at 7 d ([1]; broilers, liver, 5 mg/kg b. w.): 580 ± 80 ng/g; concentration at 14 d ([1]; broilers, liver, 5 mg/kg b. w.): 130 ± 50 ng/g; concentration at 3 d [1, 5]: 220 ± 30 ng/g; concentration at 7 d [1, 5]: 30 ng/g; half-life ([1]; broiler fat, after 5 mg/kg b. w. for 7 days, read-out: t1/2 of the individual compound (converted)): 71.5 h; half-life ([1]; broiler muscle, after 5 mg/kg b. w. for 7 days, read-out: t1/2 of the individual compound (converted)): 40.1 h	COc1cc(Cc2cnc(N)nc2N)cc(OC)c1N(C)C [A0, 2,4-Diamino-5-[4-(dimethylamino)-3,5-dimethoxybenzyl] pyrimidine]
